We go through one compound from US10058525B2, “Application of chlorogenic acid in preparing medicines for treating lupus erythematosus” (SICHUAN JIUZHANG BIOLOGICAL SCIENCE AND TECHNOLOGY CO., LTD., priority 2015, dated 2018).

For assay [1], the system named is ANA. As to the kind of experiment: Serologic detection of ANA by immunofluorescence on HEp-2 cell sheets, serum of UV + LPS lupus model mice. Particulars: day 14, intragastric. Details: key: (+): positive; (−): negative; (++++): intenseintensity; (+++): stronger fluorescent intensity. The format is in vivo, BALB/c mice. On the procedure:
(§1) The back of mice was shaved and acutely exposed to Ultraviolet of 2 h/d*3 d, with a distance of 30 cm. After exposure to UV, 2.5 mg/kg of LPS was administrated once by ip, and after 24 h, the model was successfully established; the mice in the normal control group received normal saline via ip. 24 h after injection of LPS (ip), medicines were given to the model mice by intragastric administration. Chlorogenic acid test groups received high, middle, and low doses of medicines, by intragastric administration at a respective dosage of 10 mg/kg*d, 20 mg/kg*d, and 40 mg/kg*d. The positive control group A received 2 mg/kg*d of artesunate by stomach perfusion, while the positive control group B received 1 mg/kg*d of prednisone by stomach perfusion. Mice in the model and normal control group all received 0.4 ml/mouse normal saline by gavage. After 15 days of administration, animals in each group were taken blood by separating eyeballs on days 14, 21, 28, and after cultured in water bath at 37° C. for 1 h, the blood sample was centrifugated at 2000 r/min for 5 min, to draw serum for use. On day 21, after blood collection, animals were sacrificed by dislocation, followed by collection of liver and kidney, and they were placed in fixative solutions of electron microscope and light microscrope, respectively. Serum of mice was diluted at 1:100 with special buffer solution of Shenzhen Hengjia, and then 200 μL of diluted serum was respectively added to the reactive tank with corresponding number, cultured in the incubator at 37° C. for 30 min, and washed with the buffer solution four times, 2 min for each time; 200 μL of diluted biotin goat anti-mouse IgG (1:100) was added, cultured in the incubator at 37° C. for 30 min, and then washed with the buffer solution four times, 2 min for each time; 100 μL of diluted HRP-avidin (1:100) was added, cultured in the incubator at 37° C. for 30 min, and then washed as mentioned-above; reactive solutions A and B were added till appearance of positive bands, then washed with the buffer solution. Compared with the standard bands of ENA polypeptide antibody spectrum in the same kit, if the positive bands appeared at 28/29,13.5 ku polypeptide; 15,16.5,38 kupolypeptide; 52 kupolypeptide and 47/48,45 kupolypeptide, that can be determined as anti-Sm, anti-Rib, anti-ssA, and anti-ssB positive antibody. Serum was diluted with PBS at 1:40, then 20-30 μL of diluted serum was dropped into the scrobiculus of HEp-2 cell sheets, each cell sheet for each group. In the process of dropping serum, it should be noted that the surface of cell sheet can not be touched. After addition of serum, cell sheet was placed in wet box and kept for 30 min at room temperature (25° C.). After 30 min, the cell sheet was taken out, and serum was carefully washed out with PBS, then carefully washed twice with PBS, 5 min for each time; after washing, the remained PBS was removed by special absorbent paper of […] company (In this process, it should be noted that becoming dry of cell substrates will affect the results). 20-30 μL of diluted (PBS, 1:100) FITC goat anti-mouse IgG was added by dropping, and then incubated in wet box at room temperature for 30 min. After washing with PBS, steps were same to above. The remained PBS was removed by absorbent paper, and 1-2 drops of fluorescent mounting media were added to the cell sheet. The cover glass was mounted, observed under Olympus BH-2 universal microscope, and then photographed.

A further assay deals with lupus erythematosus. The assay is described as follows: Screening medicines for treatment of lupus erythematosus. Particulars: screening of extracts and potency constituents; no method given.
Assay [2] deals with lupus erythematosus model mice (kidney, liver). As to the kind of experiment: Triple staining (silver staining) of kidney and liver sections under light microscope, lupus model mice. The class given is in vivo, BALB/c mice. On the procedure:
The back of mice was shaved and acutely exposed to Ultraviolet of 2 h/d*3 d, with a distance of 30 cm. After exposure to UV, 2.5 mg/kg of LPS was administrated once by ip, and after 24 h, the model was successfully established; the mice in the normal control group received normal saline via ip. 24 h after injection of LPS (ip), medicines were given to the model mice by intragastric administration. Chlorogenic acid test groups received high, middle, and low doses of medicines, by intragastric administration at a respective dosage of 10 mg/kg*d, 20 mg/kg*d, and 40 mg/kg*d. The positive control group A received 2 mg/kg*d of artesunate by stomach perfusion, while the positive control group B received 1 mg/kg*d of prednisone by stomach perfusion. Mice in the model and normal control group all received 0.4 ml/mouse normal saline by gavage. After 15 days of administration, animals in each group were taken blood by separating eyeballs on days 14, 21, 28, and after cultured in water bath at 37° C. for 1 h, the blood sample was centrifugated at 2000 r/min for 5 min, to draw serum for use. On day 21, after blood collection, animals were sacrificed by dislocation, followed by collection of liver and kidney, and they were placed in fixative solutions of electron microscope and light microscrope, respectively.
[…] The thickness of slice is 3 μm, and at beginning of staining, wax was routinely deprived to water. After oxidation with 0.5% periodic acid, the slice was macerated in hexamine silver fluid for about 2 h (constant temperature 58° C.), washed with distilled water, dyed with hematoxylin for 1 min. After washing with water, the slice was dyed by dropping the ponceau staining solution for 5 min, differentiated with 70% ethanol, dehydrated with gradient ethanol, cleared with xylene, and sealed with neutral gum.

For assay [3], the system named is ANA. The assay is described as follows: Serologic detection of ANA by immunofluorescence on HEp-2 cell sheets, serum of UV + LPS lupus model mice. The format is in vivo, BALB/c mice. Details: key: (+): positive; (−): negative; (++++): intense fluorescence; (+++): stronger fluorescence; (++): weeker fluorescence. Particulars: intragastric. On the procedure:
as §1

Where [4] appears, read: chlorogenic acid group administrated for 28 days.

For `O=C(/C=C/c1ccc(O)c(O)c1)O[C@@H]1C[C@](O)(C(=O)O)C[C@@H](O)[C@H]1O` [Chlorogenic acid, 3-O-caffeoylquinic acid], the ANA entry with ANA [1] (chlorogenic acid high dose) is reported as “(+++)”; in the assay on ANA [1] (chlorogenic acid low dose), “(++++)”; in the assay with ANA [1] (chlorogenic acid middle dose), “(+++)”; with ANA [3] (day 21, chlorogenic acid high dose), “(++)”; in the assay on ANA [3] (day 21, chlorogenic acid low dose), “(+++)”; in the assay with ANA [3] (day 21, chlorogenic acid middle dose), “(++)”. Further, the ANA entry is given as “(++)” in the assay with ANA [3] (day 28, chlorogenic acid high dose); “(+++)” in the assay on ANA [3] (day 28, chlorogenic acid low dose); “(++)” with ANA [3] (day 28, chlorogenic acid middle dose). Also, the “inhibition on lupus erythematosus” value in the assay on lupus erythematosus is listed as “more obvious inhibition”. Further, in assay [2] (setting [4]), the “staining of hepatic blood vessel basilar membrane” value is on record as “somewhat recovered”. Also, the “thickening degree of renal glomerular and tubular basilar membrane” value in assay [2] (setting [4]) was “reduced compared with normal mice”. In addition, the “basilar membrane of renal glomerulus and tubule, pathological section” value in assay [2] (chlorogenic acid, 21 days) was “increased thickness compared with normal mice”. In addition, the “pathological section of kidney: conditions versus model group” value in assay [2] (chlorogenic acid, 21 days, especially high dose group) is “better than the model group”. Also, the “thickening of renal glomerulus and tubular basement membrane (FIG. 8)” value in assay [2] (high dose of chlorogenic acid, 28 days, ×50) was “thickening degree of renal glomerulus and tubular basement membrane reduces”.
